# Measured values as given in patent US20260207606A1, “DOSING SCHEDULE OF A SOLID DISPERSION OF A HER2 INHIBITOR” (Boehringer Ingelheim International GmbH, priority 2022, published 2026).
# Key:
# [1] = tested on: HER2 Tyrosine Kinase Domain (TKD) mutation positive non-squamous NSCLC; experiment: Phase Ib dose expansion, Cohort 1: objective response and disease control (RECIST 1.1); type: in vivo, human; conditions: 120/240 mg QD
# Source text: This Example focuses on the dose expansion part (Phase Ib) of the Phase I study described in Example 8. Approximately 275 patients diagnosed with advanced or metastatic refractory NSCLC harbouring mutations in the HER2 gene are enrolled. Patients are divided into 5 cohorts according to the main inclusion criteria listed below.
# The trial objectives of Phase Ib include: • For cohort 1, cohort 2, and cohort 5, assess objective tumour response rate by central independent review; • For cohort 3, assess objective tumour response rate by investigator assessment; • For all cohorts, further investigate the safety, tolerability, and PK of the investigated doses of zongertinib in patients with HER2 mutation positive advanced/metastatic NSCLC; • For all cohorts, continue evaluating safety, and patient-reported outcomes.
# The primary endpoints of Phase Ib include: • For cohort 1, 2, and 5: objective response (OR) assessed by independent central review, according to Response Evaluation Criteria In Solid Tumors (RECIST) version 1.1; • For cohort 3: objective response (OR) by investigator.
# For Cohort 1, 2, and 5: • Duration of objective response (DoR) according to RECIST 1.1 by central independent review; • Disease control (DC) according to RECIST 1.1 by central independent review; • Progression-free survival (PFS) according to RECIST 1.1 by central independent review; […]
# [2] = tested on: NSCLC; experiment: Phase Ia dose escalation trial: tumour response according to RECIST v1.1 in NSCLC patients; type: in vivo, human; conditions: regardless of confirmation, data lock 16 Mar. 2023
# Source text: Tumour assessments should include computed tomography (CT) scans of the chest, abdomen/pelvis (or PET/CT) and a brain MRI at screening. If clinically indicated, imaging of any other known or suspected sites of disease (e.g. bone) using an appropriate method (CT scan, MRI, PET/CT, or bone scan) should be performed. The same radiographic procedure must be used throughout the trial. Assessments will be performed by the investigator at screening (≤28 days prior to initiation of treatment), every 2 cycles (6 weeks ±5 days), at the end-of-treatment (EOT) visit (if not performed within the previous 3 weeks), and at the discretion of the investigator, and copies may be collected by the sponsor or designee. Wherever possible the assessment schedule should not be changed, but if there is an interruption or delay to treatment, alteration of the tumour assessment schedule to align with clinical assessments is allowed. Additional unscheduled tumour assessments may be performed at the discretion of the investigator. If the patient stops trial medication for a reason other than progression, tumour assessment according to RECIST v1.1 continues until progression (or until one of the following occurs; death, lost to follow-up, end of the trial).
# Tumour response is evaluated according to RECIST Version 1.1 (Eisenhauer E A, Therasse P, Bogaerts J, Schwartz L H, Sargent D, Ford R, et al. New response evaluation criteria in solid tumours: revised RECIST guideline (version 1.1). Eur J Cancer. 2009; 45:228-247). RECIST 1.1 is used for a) whole-body assessment (classical RECIST 1.1) and b) the tumour assessment of non-CNS areas. The assessment according to classical RECIST 1.1 by the investigator and/or the local radiologist is the basis for continuation or discontinuation of the trial in an individual patient (in addition to safety). No whole-body RECIST assessment is performed in the dose escalation part.
# [3] = 23 evaluable patients (received 2-5 cycles at cut-off)
structure (smiles),measurement,setting,value
"C=CC(=O)NC1CCN(c2ncc3ncnc(Nc4ccc(Oc5ccc6c(c5)ncn6C)c(C)c4)c3n2)CC1 [compound (1), N-{1-[8-({3-methyl-4-[(1-methyl-1H-1,3-benzodiazol-5-yl)oxy]phenyl}amino)-[1,3]diazino[5,4-d]pyrimidin-2-yl]piperidin-4-yl}prop-2-enamide]",DCR,[1]; [3],91%
same,ORR,[1]; [3],74%
same,responding patients on treatment at data cut-off,[1],All responding patients remained on treatment
same,"Best overall response (RECIST 1.1): Complete response, %","[2]; 15 mg BID, 1 NSCLC patients",0.0%
same,"Best overall response (RECIST 1.1): Non-CR/Non-PD, %","[2]; 15 mg BID, 1 NSCLC patients",0.0%
same,"Best overall response (RECIST 1.1): Not evaluable, %","[2]; 15 mg BID, 1 NSCLC patients",0.0%
same,"Best overall response (RECIST 1.1): Partial response, %","[2]; 15 mg BID, 1 NSCLC patients",0.0%
same,"Best overall response (RECIST 1.1): Progressive disease, %","[2]; 15 mg BID, 1 NSCLC patients",0.0%
same,"Best overall response (RECIST 1.1): Stable disease, %","[2]; 15 mg BID, 1 NSCLC patients",100.0%
same,"Best overall response (RECIST 1.1): Complete response, %","[2]; 30 mg BID, 2 NSCLC patients",0.0%
same,"Best overall response (RECIST 1.1): Non-CR/Non-PD, %","[2]; 30 mg BID, 2 NSCLC patients",0.0%
same,"Best overall response (RECIST 1.1): Not evaluable, %","[2]; 30 mg BID, 2 NSCLC patients",0.0%
same,"Best overall response (RECIST 1.1): Partial response, %","[2]; 30 mg BID, 2 NSCLC patients",50.0%
same,"Best overall response (RECIST 1.1): Progressive disease, %","[2]; 30 mg BID, 2 NSCLC patients",0.0%
same,"Best overall response (RECIST 1.1): Stable disease, %","[2]; 30 mg BID, 2 NSCLC patients",50.0%
same,"Best overall response (RECIST 1.1): Complete response, %","[2]; 60 mg BID, 3 NSCLC patients",0.0%
same,"Best overall response (RECIST 1.1): Non-CR/Non-PD, %","[2]; 60 mg BID, 3 NSCLC patients",0.0%
same,"Best overall response (RECIST 1.1): Not evaluable, %","[2]; 60 mg BID, 3 NSCLC patients",0.0%
same,"Best overall response (RECIST 1.1): Partial response, %","[2]; 60 mg BID, 3 NSCLC patients",66.7%
same,"Best overall response (RECIST 1.1): Progressive disease, %","[2]; 60 mg BID, 3 NSCLC patients",0.0%
same,"Best overall response (RECIST 1.1): Stable disease, %","[2]; 60 mg BID, 3 NSCLC patients",33.3%
same,"Best overall response (RECIST 1.1): Complete response, %","[2]; 60 mg QD, 2 NSCLC patients",0.0%
same,"Best overall response (RECIST 1.1): Non-CR/Non-PD, %","[2]; 60 mg QD, 2 NSCLC patients",0.0%
same,"Best overall response (RECIST 1.1): Not evaluable, %","[2]; 60 mg QD, 2 NSCLC patients",0.0%
same,"Best overall response (RECIST 1.1): Partial response, %","[2]; 60 mg QD, 2 NSCLC patients",50.0%
same,"Best overall response (RECIST 1.1): Progressive disease, %","[2]; 60 mg QD, 2 NSCLC patients",0.0%
same,"Best overall response (RECIST 1.1): Stable disease, %","[2]; 60 mg QD, 2 NSCLC patients",50.0%
same,"Best overall response (RECIST 1.1): Complete response, %","[2]; 100 mg BID, 3 NSCLC patients",0.0%
same,"Best overall response (RECIST 1.1): Non-CR/Non-PD, %","[2]; 100 mg BID, 3 NSCLC patients",0.0%
same,"Best overall response (RECIST 1.1): Not evaluable, %","[2]; 100 mg BID, 3 NSCLC patients",0.0%
same,"Best overall response (RECIST 1.1): Partial response, %","[2]; 100 mg BID, 3 NSCLC patients",33.0%
same,"Best overall response (RECIST 1.1): Progressive disease, %","[2]; 100 mg BID, 3 NSCLC patients",0.0%
same,"Best overall response (RECIST 1.1): Stable disease, %","[2]; 100 mg BID, 3 NSCLC patients",66.7%
same,"Best overall response (RECIST 1.1): Complete response, %","[2]; 120 mg QD, 4 NSCLC patients",0.0%
same,"Best overall response (RECIST 1.1): Non-CR/Non-PD, %","[2]; 120 mg QD, 4 NSCLC patients",0.0%
same,"Best overall response (RECIST 1.1): Not evaluable, %","[2]; 120 mg QD, 4 NSCLC patients",0.0%
same,"Best overall response (RECIST 1.1): Partial response, %","[2]; 120 mg QD, 4 NSCLC patients",50.0%
same,"Best overall response (RECIST 1.1): Progressive disease, %","[2]; 120 mg QD, 4 NSCLC patients",25.0%
same,"Best overall response (RECIST 1.1): Stable disease, %","[2]; 120 mg QD, 4 NSCLC patients",25.0%
same,"Best overall response (RECIST 1.1): Complete response, %","[2]; 150 mg BID, 2 NSCLC patients",0.0%
same,"Best overall response (RECIST 1.1): Non-CR/Non-PD, %","[2]; 150 mg BID, 2 NSCLC patients",0.0%
same,"Best overall response (RECIST 1.1): Not evaluable, %","[2]; 150 mg BID, 2 NSCLC patients",0.0%
same,"Best overall response (RECIST 1.1): Partial response, %","[2]; 150 mg BID, 2 NSCLC patients",50.0%
same,"Best overall response (RECIST 1.1): Progressive disease, %","[2]; 150 mg BID, 2 NSCLC patients",0.0%
same,"Best overall response (RECIST 1.1): Stable disease, %","[2]; 150 mg BID, 2 NSCLC patients",50.0%
same,"Best overall response (RECIST 1.1): Complete response, %","[2]; 180 mg QD, 5 NSCLC patients",0.0%
